Laboratory results: PubChem BioAssay (NCI)
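48-hour exposure; five concentrations; linearly interpolated endpoints. Here, GI50 denotes the concentration required for 50% inhibition of growth. TGI: concentration producing complete growth inhibition.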

How the values were obtained:
Assay in all cases: NCI-60 cell line screen, 48 h
[1] = test system: SK-MEL-28 melanoma
[2] = test system: SW-620 colon
[3] = test system: MALME-3M melanoma
[4] = test system: NCI-H460 lung
[5] = test system: HT29 colon
[6] = test system: OVCAR-3 ovarian
[7] = test system: NCI-H522 lung
[8] = test system: CCRF-CEM leukemia
[9] = test system: HL-60(TB) leukemia
[10] = test system: SF-268 CNS
[11] = test system: A498 renal
[12] = test system: U251 CNS
[13] = test system: UACC-62 melanoma
[14] = test system: DU-145 prostate
[15] = test system: LOX IMVI melanoma
[16] = test system: KM12 colon
[17] = test system: OVCAR-4 ovarian
[18] = test system: IGROV1 ovarian
[19] = test system: SR leukemia
[20] = test system: OVCAR-5 ovarian
[21] = test system: RPMI-8226 leukemia
[22] = test system: SF-295 CNS
[23] = test system: MDA-MB-468 breast
[24] = test system: SN12C renal
[25] = test system: SK-OV-3 ovarian
[26] = test system: T-47D breast
[27] = test system: SNB-19 CNS
[28] = test system: HCC-2998 colon
[29] = test system: RXF 393 renal
[30] = test system: NCI/ADR-RES ovarian
[31] = test system: MDA-MB-435
[32] = test system: MCF7 breast
[33] = test system: SK-MEL-5 melanoma
[34] = test system: NCI-H226 lung
[35] = test system: UACC-257 melanoma
[36] = test system: 786-0 renal
[37] = test system: K-562 leukemia
[38] = test system: UO-31 renal
[39] = test system: HS 578T breast
[40] = test system: HCT-15 colon
[41] = test system: SF-539 CNS
[42] = test system: OVCAR-8 ovarian
[43] = test system: M14 melanoma
[44] = test system: BT-549 breast
[45] = test system: CAKI-1 renal
[46] = test system: HCT-116 colon
[47] = test system: PC-3 prostate
[48] = test system: EKVX NSCLC
[49] = test system: NCI-H23 lung
[50] = test system: SK-MEL-2 melanoma
[51] = test system: HOP-62 NSCLC
[52] = test system: ACHN renal
[53] = test system: TK-10 renal
[54] = test system: COLO 205 colon
[55] = test system: MOLT-4 leukemia
[56] = test system: MDA-MB-231 breast
[57] = test system: HOP-92 NSCLC
[58] = test system: A549 NSCLC
[59] = test system: SNB-75 CNS

SMILES: CN1CCN(c2ccc(C(=O)/C=C/c3cc(C(F)(F)F)cc(C(F)(F)F)c3)cc2)CC1
- GI50 [1]: 1.68 µM
- TGI [1]: 3.05 µM
- GI50 [2]: 1.81 µM
- TGI [2]: 4.51 µM
- GI50 [3]: 1.66 µM
- TGI [3]: 3.07 µM
- GI50 [4]: 2.89 µM
- TGI [4]: > 100 µM
- GI50 [5]: 1.62 µM
- TGI [5]: 3.41 µM
- GI50 [6]: 1.45 µM
- TGI [6]: 2.94 µM
- GI50 [7]: 1.4 µM
- TGI [7]: 2.97 µM
- GI50 [8]: 2.38 µM
- TGI [8]: 5.87 µM
- GI50 [9]: 1.04 µM
- TGI [9]: 2.79 µM
- GI50 [10]: 1.82 µM
- TGI [10]: 3.71 µM
- GI50 [11]: 17.9 µM
- TGI [11]: 35.6 µM
- GI50 [12]: 1.66 µM
- TGI [12]: 3.18 µM
- GI50 [13]: 1.5 µM
- TGI [13]: 2.86 µM
- GI50 [14]: 1.63 µM
- TGI [14]: 3.04 µM
- GI50 [15]: 1.35 µM
- TGI [15]: 2.63 µM
- GI50 [16]: 1.76 µM
- TGI [16]: 3.82 µM
- GI50 [17]: 1.52 µM
- TGI [17]: 3.49 µM
- GI50 [18]: 1.65 µM
- TGI [18]: 3.15 µM
- GI50 [19]: 1.17 µM
- TGI [19]: 3.93 µM
- GI50 [20]: 1.68 µM
- TGI [20]: 3.2 µM
- GI50 [21]: 1.44 µM
- TGI [21]: 3.8 µM
- GI50 [22]: 1.47 µM
- TGI [22]: 2.82 µM
- GI50 [23]: 1.24 µM
- TGI [23]: 2.56 µM
- GI50 [24]: 1.3 µM
- TGI [24]: 2.59 µM
- GI50 [25]: 2.6 µM
- TGI [25]: 6.12 µM
- GI50 [26]: 1.27 µM
- TGI [26]: 3.1 µM
- GI50 [27]: 1.73 µM
- TGI [27]: 3.1 µM
- GI50 [28]: 1.39 µM
- TGI [28]: 2.68 µM
- GI50 [29]: 1.19 µM
- TGI [29]: 2.57 µM
- GI50 [30]: 1.64 µM
- TGI [30]: 3.64 µM
- GI50 [31]: 1.6 µM
- TGI [31]: 3.07 µM
- GI50 [32]: 1.2 µM
- TGI [32]: 2.56 µM
- GI50 [33]: 1.55 µM
- TGI [33]: 2.9 µM
- GI50 [34]: 1.49 µM
- TGI [34]: 3.2 µM
- GI50 [35]: 1.73 µM
- TGI [35]: 3.58 µM
- GI50 [36]: 1.68 µM
- TGI [36]: 3.11 µM
- GI50 [37]: 1.07 µM
- TGI [37]: 6.37 µM
- GI50 [38]: 1.46 µM
- TGI [38]: 2.78 µM
- GI50 [39]: 4.88 µM
- TGI [39]: 34.7 µM
- GI50 [40]: 1.12 µM
- TGI [40]: 2.39 µM
- GI50 [41]: 1.64 µM
- TGI [41]: 3 µM
- GI50 [42]: 1.73 µM
- TGI [42]: 4.36 µM
- GI50 [43]: 1.52 µM
- TGI [43]: 2.97 µM
- GI50 [44]: 1.33 µM
- TGI [44]: 2.66 µM
- GI50 [45]: 1.66 µM
- TGI [45]: 3.26 µM
- GI50 [46]: 1.15 µM
- TGI [46]: 2.45 µM
- GI50 [47]: 1.64 µM
- TGI [47]: 3.32 µM
- GI50 [48]: 1.87 µM
- TGI [48]: 3.41 µM
- GI50 [49]: 1.51 µM
- TGI [49]: 2.97 µM
- GI50 [50]: 1.73 µM
- TGI [50]: 3.23 µM
- GI50 [51]: 1.86 µM
- TGI [51]: 3.75 µM
- GI50 [52]: 1.49 µM
- TGI [52]: 2.82 µM
- GI50 [53]: 2 µM
- TGI [53]: 3.45 µM
- GI50 [54]: 2.03 µM
- TGI [54]: 3.87 µM
- GI50 [55]: 1.42 µM
- TGI [55]: 5.01 µM
- GI50 [56]: 1.75 µM
- TGI [56]: 3.35 µM

SMILES: CCCn1c(=O)c2[nH]c(-c3ccc(OCc4nc5ccc(C)cc5[nH]4)cc3)nc2n(CCC)c1=O
- GI50 [1]: 15.9 µM
- TGI [1]: > 100 µM
- GI50 [2]: 32.5 µM
- TGI [2]: > 100 µM
- GI50 [3]: 7.28 µM
- TGI [3]: 20.5 µM
- GI50 [57]: 2.29 µM
- TGI [57]: 9.1 µM
- GI50 [4]: 6.04 µM
- TGI [4]: 23.1 µM
- GI50 [5]: 29.6 µM
- TGI [5]: > 100 µM
- GI50 [6]: 8.62 µM
- TGI [6]: 85.9 µM
- GI50 [7]: 17.2 µM
- TGI [7]: 42.3 µM
- GI50 [8]: 32.8 µM
- TGI [8]: > 100 µM
- GI50 [9]: 46.2 µM
- TGI [9]: > 100 µM
- GI50 [10]: 12.6 µM
- TGI [10]: > 100 µM
- GI50 [11]: 2.43 µM
- TGI [11]: 10.6 µM
- GI50 [12]: 4.06 µM
- TGI [12]: 17 µM
- GI50 [13]: 10 µM
- TGI [13]: 25.6 µM
- GI50 [14]: 66.4 µM
- TGI [14]: > 100 µM
- GI50 [15]: 4.72 µM
- TGI [15]: 17.3 µM
- GI50 [16]: > 100 µM
- TGI [16]: > 100 µM
- GI50 [17]: 2.73 µM
- TGI [17]: > 100 µM
- GI50 [18]: 10.1 µM
- TGI [18]: 38.7 µM
- GI50 [19]: > 100 µM
- TGI [19]: > 100 µM
- GI50 [20]: 18.5 µM
- TGI [20]: 76.8 µM
- GI50 [21]: 9.71 µM
- TGI [21]: > 100 µM
- GI50 [22]: 2.65 µM
- TGI [22]: 13.1 µM
- GI50 [23]: 8.62 µM
- TGI [23]: 27.6 µM
- GI50 [24]: 3.78 µM
- TGI [24]: 18.1 µM
- GI50 [25]: 12.1 µM
- TGI [25]: 27 µM
- GI50 [26]: 16.9 µM
- TGI [26]: 47.2 µM
- GI50 [27]: 6 µM
- TGI [27]: 28.6 µM
- GI50 [28]: 29 µM
- TGI [28]: > 100 µM
- GI50 [29]: 1.62 µM
- TGI [29]: 5.12 µM
- GI50 [30]: 11 µM
- TGI [30]: 64.5 µM
- GI50 [31]: 31 µM
- TGI [31]: > 100 µM
- GI50 [32]: 7.35 µM
- TGI [32]: 36.6 µM
- GI50 [33]: 13.7 µM
- TGI [33]: 31.5 µM
- GI50 [34]: 2.91 µM
- TGI [34]: 13.2 µM
- GI50 [35]: 40.9 µM
- TGI [35]: > 100 µM
- GI50 [36]: 3.06 µM
- TGI [36]: 12.1 µM
- GI50 [37]: 22.3 µM
- TGI [37]: > 100 µM
- GI50 [38]: 1.98 µM
- TGI [38]: 7.27 µM
- GI50 [39]: 2.36 µM
- TGI [39]: 11.1 µM
- GI50 [58]: 13.5 µM
- TGI [58]: > 100 µM
- GI50 [40]: 14.7 µM
- TGI [40]: > 100 µM
- GI50 [41]: 2.61 µM
- TGI [41]: 7.98 µM
- GI50 [42]: 5.3 µM
- TGI [42]: 24.8 µM
- GI50 [43]: 21.3 µM
- TGI [43]: > 100 µM
- GI50 [44]: 14 µM
- TGI [44]: 46.7 µM
- GI50 [45]: 4.55 µM
- TGI [45]: 25.1 µM
- GI50 [46]: 11.3 µM
- TGI [46]: 27.8 µM
- GI50 [47]: 9.66 µM
- TGI [47]: > 100 µM
- GI50 [48]: 20.7 µM
- TGI [48]: > 100 µM
- GI50 [49]: 12 µM
- TGI [49]: 24.4 µM
- GI50 [50]: 16.8 µM
- TGI [50]: 33.2 µM
- GI50 [51]: 4.12 µM
- TGI [51]: 16.9 µM
- GI50 [52]: 3.29 µM
- TGI [52]: 13.4 µM
- GI50 [53]: 10.7 µM
- TGI [53]: 23.1 µM
- GI50 [54]: 84.7 µM
- TGI [54]: > 100 µM
- GI50 [55]: 12.2 µM
- TGI [55]: > 100 µM
- GI50 [56]: 3.48 µM
- TGI [56]: 14.5 µM
- GI50 [59]: 1.54 µM
- TGI [59]: 4.62 µM
